Numbers after ± are expanded uncertainties.
Details: Liquid, Ebulliometric method (Recirculating still)

Row | vapor or sublimation pressure (374.12 K) [kPa] | SMILES | vapor or sublimation pressure (329.33 K) [kPa]
1 | – | CC(C)=O [acetone] | 101.3 ± 0.8
2 | 101.3 ± 0.8 | C[Si](C)(C)O[Si](C)(C)C [hexamethyldisiloxane] | –

From the NIST ThermoML archive (doi:10.1021/acs.jced.8b00488)
